From patent publication US11203577B2, “Sulfonyl-structure-containing triazinone derivatives, their preparation methods and their uses in insect killing and/or bacterium killing” (Nankai University, priority 2017, dated 2021)
Where two headings read alike, the source gives them in different places.

Legend:
[1] = test system: bean aphides (Aphis laburni Kaltenbach); test: Test of insecticidal activity against aphides (leaf immersion, checked after 96 h); settings: for mortality at 10 mg/kg / mortality at 100 mg/kg / mortality at 600 mg/kg / mortality at 5 mg/kg: Aphis, 96 h, read-out: Mortalities (%) against aphides; for insecticidal activity against aphides compared with pymetrozine: 5 mg/kg
Protocol: The insecticidal activity against aphides is tested through the following steps: the tested aphides are bean aphides (Aphis laburni Kaltenbach), a normal colony fed with broad bean leaves in a laboratory. The pesticide is weighed, 1 mL DMF is added to dissolve the pesticide, then two drops of emulsifier, Tween-20 are added, and distilled water is added in an appropriate amount; the mixture is stirred to a homogeneous state to prepare pesticide solution at required concentration (see the following table for the specific concentration). […] In a control group, only emulsifier and solvent are added into distilled water, and the mixture is stirred to a homogeneous state.

[2] = test system: Corn southern leaf blight; test: In vitro fungicidal activity, PDA colony diameter; type: cell-based; settings: 50 mg/kg, inhibition of colony diameter; read-out: Fungicidal activity (%) Corn southern leaf blight
Potato late blight = test: microbe, parasite or virus in culture; type: cell-based; settings: Phytophthora infestans, 96 h, read-out: Fungicidal activity (%) Potato late blight
Sclerotinia rot of colza = test: In vitro fungicidal activity, PDA colony diameter; type: cell-based; settings: 96 h, 50 mg/kg, inhibition of colony diameter, read-out: Fungicidal activity (%) Sclerotinia rot of colza
Rice sheath blight = test: In vitro fungicidal activity, PDA colony diameter; type: cell-based; settings: 50 mg/kg, inhibition of colony diameter; read-out: Fungicidal activity (%) Rice sheath blight
Rice bakanae disease = test: In vitro fungicidal activity, PDA colony diameter; type: cell-based; settings: read-out: Fungicidal activity (%) Rice bakanae disease
Cucumber fusarium wilt = test: In vitro fungicidal activity, PDA colony diameter; type: cell-based; settings: 96 h, 50 mg/kg, inhibition of colony diameter, read-out: Fungicidal activity (%) Cucumber fusarium wilt
Maize borers = test: Test of insecticidal activity against maize borers (leaf immersion); settings: read-out: Mortalities (%) Maize borers
[3] = test system: Capsicum phytophthora blight; test: In vitro fungicidal activity, PDA colony diameter; type: cell-based; settings: 96 h
Procedure, shortened: (§1)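 Mycelial plugs cut from the edge of 7-day PDA colonies placed on PDA containing 50 mg/kg compound or on compound-free PDA, grown 4 days. Colony diameters measured; percent inhibition calculated against untreated control.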

Apple ring rot = test: In vitro fungicidal activity, PDA colony diameter; type: cell-based; settings: inhibition of colony diameter
Procedure, shortened: as §1

Watermelon anthracnose = test: In vitro fungicidal activity, PDA colony diameter; type: cell-based; settings: read-out: Fungicidal activity (%) Watermelon anthracnose
Wheat sheath blight = test: In vitro fungicidal activity, PDA colony diameter; type: cell-based; settings: 50 mg/kg, inhibition of colony diameter; read-out: Fungicidal activity (%) Wheat sheath blight
[4] = test system: mosquito larvae (Culer pipiens pallens); test: Test of insecticidal activity against mosquito larvae (checked after 24 h); settings: for insecticidal activity against mosquito larvae: in vivo
Cotton bollworms = test: Test of insecticidal activity against cotton bollworms (pesticide mixed into feedstuff); settings: read-out: Mortalities (%) Cotton bollworms
Protocol: Method of testing against cotton bollworms: the pesticide is mixed into the feedstuff, i.e., 3 mL prepared solution is added into about 27 g freshly prepared feedstuff; thus, required concentration is obtained by diluting by 10 times.

[5] = test system: Cercospora brown spot of peanut; test: In vitro fungicidal activity, PDA colony diameter; type: cell-based; settings: 96 h, 50 mg/kg, inhibition of colony diameter, read-out: Fungicidal activity (%) Cercospora brown spot of peanut
Wheat head blight = test: whole plant or invertebrate; type: cell-based; settings: Triticum aestivum, read-out: Fungicidal activity (%) Wheat head blight
Tomato early blight = test: In vitro fungicidal activity, PDA colony diameter; type: cell-based, Alternaria solani; settings: 50 mg/kg, inhibition of colony diameter; read-out: Fungicidal activity (%) Tomato early blight
Armyworms = test: Test of insecticidal activity against armyworms (leaf immersion); settings: 3-4 days
[6] = 24 h, read-out: Mortalities (%) against mosquito larvae
[7] = 50 mg/kg, inhibition of colony diameter

Structure (SMILES)	mortality at 10 mg/kg [1] [%]	mortality at 100 mg/kg [1] [%]	mortality at 600 mg/kg [1] [%]	inhibition at 50 mg/kg [2] [%]	inhibition of growth at 50 mg/kg (Potato late blight) [%]	inhibition of growth at 50 mg/kg (Sclerotinia rot of colza) [%]	inhibition at 50 mg/kg (Rice sheath blight) [%]	inhibition of growth at 50 mg/kg (Cucumber fusarium wilt) [%]	mortality at 600 mg/kg (Maize borers) [%]	inhibition of growth at 50 mg/kg [3] [%]	inhibition at 50 mg/kg (Apple ring rot) [%]	inhibition at 50 mg/kg (Wheat sheath blight) [%]	mortality at 10 mg/kg [4, 6] [%]	mortality at 600 mg/kg (Cotton bollworms) [%]	inhibition of growth at 50 mg/kg [5] [%]	inhibition at 50 mg/kg (Wheat head blight) [%]	inhibition at 50 mg/kg (Tomato early blight) [%]	Mortalities (%) Armyworms (Armyworms; 600 mg/kg) [%]	inhibition at 50 mg/kg (Rice bakanae disease; [7]) [%]	inhibition at 50 mg/kg (Watermelon anthracnose; [7]) [%]	further results
CC1=NNC(=O)N(NS(=O)(=O)c2cn(C)c(C)n2)C1 [Ia-32, 1,2-dimethyl-N-(6-methyl-3-oxo-2,3-dihydro-1,2,4-triazin-4(5H)-yl)-1H-imidazolyl-4-sulfonamide]	30	100	100	7.7	18.8	15.8	10.5	8.8	0	9.4	43.1	30.9	20	0	26.1	12.5	16.1	5			inhibition at 50 mg/kg (Rice bakanae disease): 18.8%; inhibition at 50 mg/kg (Watermelon anthracnose): 18.8%
CC1=NNC(=O)N(NS(=O)(=O)c2ccc(F)cc2F)C1 [Ia-19, 2,4-difluoro-N-(6-methyl-3-oxo-2,3-dihydro-1,2,4-triazin-4(5H)-yl)-benzenesulfonamide]	85	100	100	18.7	25	15.8	11.6	11.8	20	5.6	24.3	0	100	20	12	5.4	19.4	25	17.2	16.4	insecticidal activity against aphides compared with pymetrozine [1]: equivalent to the insecticidal activity of pymetrozine; mortality at 5 mg/kg [1]: 25%; mortality at 1 mg/kg [4, 6]: 60%; mortality at 2 mg/kg [4, 6]: 100%; mortality at 5 mg/kg [4, 6]: 100%; insecticidal activity against mosquito larvae [4]: relatively high insecticidal activity
CCS(=O)(=O)NN1CC(C)=NNC1=O [Ia-2, N-(6-methyl-3-oxo-2,3-dihydro-1,2,4-triazin-4(5H)-yl)-ethylsulfonamide]	50	90	100	29.2	22.2	56.7	34.9	5	15	36.7	20.7	63.6	20	5	15.8	20	33.3	10	50	33.3	
CC1=NNC(=O)N(NS(=O)(=O)c2ccc(Br)cc2)C1 [Ia-22, 4-bromo-N-(6-methyl-3-oxo-2,3-dihydro-1,2,4-triazin-4(5H)-yl)-benzenesulfonamide]	100	100	100	3.1	25	21	23.2	14.7	100	27.8	37.8	8.7	100	100	16	16.2	6	100	17.2	56.3	insecticidal activity against aphides compared with pymetrozine [1]: equivalent to the insecticidal activity of pymetrozine; mortality at 5 mg/kg [1]: 40%; mortality at 200 mg/kg (Maize borers): 65%; mortality at 0.5 mg/kg [4, 6]: 40%; mortality at 1 mg/kg [4, 6]: 100%; mortality at 2 mg/kg [4, 6]: 100%; mortality at 5 mg/kg [4, 6]: 100%; insecticidal activity against mosquito larvae [4]: relatively high insecticidal activity; mortality at 200 mg/kg (Cotton bollworms): 80%; Mortalities (%) Armyworms (Armyworms; 200 mg/kg): 70%
CC1=NNC(=O)N(NS(C)(=O)=O)C1 [Ia-1, N-(6-methyl-3-oxo-2,3-dihydro-1,2,4-triazin-4(5H)-yl)-methylsulfonylamide]	100	100	100	20.8	33.3	31.7	11.1	0	0	46.9	31	63.6	55	40	26.3	13.3	9.5	5	27.8	20.8	mortality at 5 mg/kg [1]: 25%
CC1=NNC(=O)N(NS(=O)(=O)c2cccc3ccccc23)C1 [Ia-8, N-(6-methyl-3-oxo-2,3-dihydro-1,2,4-triazin-4(5H)-yl)-naphthyl-1-sulfonamide]	25	85	90	8.3	28.6	16.7	17.9	20.5	0	26.9	0	30.2	15	0	19.2	33.3	20	10	7.4	0	
CCS(=O)(=O)N(N1CC(C)=NNC1=O)S(=O)(=O)CC [Ib-2, n-(ethylsulfonyl)-N-(6-methyl-3-oxo-2,3-dihydro-1,2,4-triazin-4(5H)-yl)-ethylsulfonamide]			85	16.7	18.5	48.3	27	10	5	38.8	58.6	61.4	15	25	15.8	13.3	33.3	5	27.8	12.5	
